Measurements as given in US20110263594A1, “NOVEL TRIAZOLO(4,3-A)PYRIDINE DERIVATIVES, PROCESS FOR THE PREPARATION THEREOF, USE THEREOF AS MEDICAMENTS, PHARMACEUTICAL COMPOSITIONS AND NOVEL USE, IN PARTICULAR AS MET INHIBITORS” (SANOFI-AVENTIS, priority 2008, published 2011).
pIC50: −log10 of the molar value.

How the values were obtained:
[1] = test system: HCT116 cells and MKN45 cells; assay: Test C: measurement of cell proliferation by 14C-thymidine pulse; assay type: cell-based; settings: 14C-thymidine incorporation, 96 h of treatment; cell line not given
Procedure: The cells are seeded into Cytostar 96-well plates in 180 μl for 4 hours at 37° C. and 5% CO2: HCT116 cells in a proportion of 2500 cells per well in DMEM medium+10% foetal calf serum+1% L-glutamine, and MKN45 cells in a proportion of 7500 cells per well in RPMI medium+10% foetal calf serum+1% L-glutamine. After these 4 hours of incubation, the products are added in 10 μl as a […] concentrated solution according to the dilution method mentioned for the ELISA. The products are tested at 10 concentrations in duplicate from 10 000 nM to 0.3 nM with an increment of 3.
After treatment for 72 h, 10 μl of ^14C-thymidine at 10 μCi/ml are added so as to obtain 0.1 μCi per well. The ^14C-thymidine incorporation is measured on a Micro-Beta machine (Perkin-Elmer) after 24 hours of pulse and 96 h of treatment.
All the steps of the assay are automated on BIOMEK 2000 or TECAN stations.

MET [2] = molecular target: T1, MET (Homo sapiens, UniProt P08581); assay: Test B: inhibition of the autophosphorylation of MET, ELISA technique (pppY1230,1234,1235) in MKN45 cells; assay type: cell-based; design: endogenous in cells; host or cells: MKN45 cells; settings: 1 h treatment, phosphoMET ELISA
Procedure: B) Test B: Inhibition of the autophosphorylation of MET; ELISA technique (pppY1230,1234,1235) a) Cell lysates: MKN45 cells are seeded into 96-well plates (cell coat BD polylysine) at 20 000 cells/well in 200 μl in RPMI medium+10% FCS+1% L-glutamine. They are left to adhere for 24 hours in an incubator.
The cells are treated the day after seeding with the products at 6 concentrations, in duplicate, for 1 h. At least 3 control wells are treated with the same final amount of DMSO.
Product dilution: Stock at 10 mM in pure DMSO—range from 10 mM to 30 μM with an increment of 3 in pure DMSO—intermediate dilutions to 1/50 in culture medium and then removal of 10 μl added directly to the cells (200 μl): final range of 10 000 to 30 nM.
At the end of the incubation, the supernatant is carefully removed and rinsing is performed with 200 μl of PBS. Next, 100 μl of lysis buffer are placed directly in the wells on ice and incubated at 4° C. for 30 minutes. Lysis buffer: 10 mM Tris HCl, pH 7.4, 100 mM NaCl, 1 mM EDTA, 1 mM EGTA, 1% Triton X-100, 10% glycerol, 0.1% SDS, 0.5% deoxycholate, 20 mM NaF, 2 mM Na3VO4, 1 mM PMSF and cocktail of antiproteases.
The 100 μl of lysates are transferred into a V-bottomed polypropylene plate and the ELISA is performed immediately, or the plate is frozen at −80° C.
70 μl of kit dilution buffer+30 μL of cell lysate, or 30 μl of lysis buffer for the blanks, are added to each well of the kit plate. Incubation is carried out for 2 h with gentle agitation at ambient temperature.
The wells are rinsed 4 times with 400 μl of kit washing buffer. Incubation is carried out with 100 μl of anti-phospho MET antibody for 1 hour at ambient temperature.
The wells are rinsed 4 times with 400 μl of kit washing buffer. Incubation is carried out with 100 μl of anti-rabbit HRP antibody for 30 minutes at ambient temperature (except for the wells of chromogen alone).
The wells are rinsed 4 times with 400 μl of kit washing buffer. 100 μL of chromogen are introduced and incubation is carried out for 30 minutes in the dark at ambient temperature.
The reaction is stopped with 100 μl of stop solution. The plate is read without delay at […], 0.1 second on a Wallac Victor plate reader.
Target sequence in this assay (P08581 25-1390): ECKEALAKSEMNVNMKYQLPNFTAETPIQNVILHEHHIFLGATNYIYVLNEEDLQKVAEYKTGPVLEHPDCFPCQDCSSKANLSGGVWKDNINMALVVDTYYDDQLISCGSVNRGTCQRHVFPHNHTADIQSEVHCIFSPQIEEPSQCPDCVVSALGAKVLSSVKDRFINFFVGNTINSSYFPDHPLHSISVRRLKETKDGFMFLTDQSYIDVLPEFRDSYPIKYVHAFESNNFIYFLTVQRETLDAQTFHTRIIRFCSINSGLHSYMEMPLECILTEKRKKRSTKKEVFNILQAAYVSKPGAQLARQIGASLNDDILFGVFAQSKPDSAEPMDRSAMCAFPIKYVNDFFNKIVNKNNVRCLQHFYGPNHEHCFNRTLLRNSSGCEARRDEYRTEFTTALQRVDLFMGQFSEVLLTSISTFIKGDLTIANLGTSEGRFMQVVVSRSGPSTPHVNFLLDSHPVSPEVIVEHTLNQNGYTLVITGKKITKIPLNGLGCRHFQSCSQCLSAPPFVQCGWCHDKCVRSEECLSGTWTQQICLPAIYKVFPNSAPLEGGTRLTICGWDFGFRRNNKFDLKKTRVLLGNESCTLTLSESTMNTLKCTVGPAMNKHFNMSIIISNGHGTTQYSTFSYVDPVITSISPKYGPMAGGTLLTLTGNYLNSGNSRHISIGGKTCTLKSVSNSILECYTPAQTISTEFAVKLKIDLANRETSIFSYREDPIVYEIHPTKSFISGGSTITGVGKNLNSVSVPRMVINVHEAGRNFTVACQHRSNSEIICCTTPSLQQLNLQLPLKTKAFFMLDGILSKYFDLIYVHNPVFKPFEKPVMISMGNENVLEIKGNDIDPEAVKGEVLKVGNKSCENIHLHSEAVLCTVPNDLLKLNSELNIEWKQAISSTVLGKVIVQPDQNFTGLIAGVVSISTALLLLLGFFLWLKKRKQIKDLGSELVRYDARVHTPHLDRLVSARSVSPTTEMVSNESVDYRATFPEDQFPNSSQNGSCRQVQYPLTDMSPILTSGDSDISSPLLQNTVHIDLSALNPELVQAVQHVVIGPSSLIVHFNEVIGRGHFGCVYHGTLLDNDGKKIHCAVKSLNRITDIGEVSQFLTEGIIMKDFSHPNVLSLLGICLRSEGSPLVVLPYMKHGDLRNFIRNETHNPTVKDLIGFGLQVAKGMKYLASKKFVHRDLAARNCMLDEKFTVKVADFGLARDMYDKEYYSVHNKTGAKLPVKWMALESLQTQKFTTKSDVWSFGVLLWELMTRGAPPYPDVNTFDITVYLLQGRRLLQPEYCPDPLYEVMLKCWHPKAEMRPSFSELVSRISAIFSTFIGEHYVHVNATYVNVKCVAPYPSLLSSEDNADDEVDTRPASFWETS

MET [3] = molecular target: T1, MET; assay: Test A: HTRF MET assay in 96-well format; assay type: biochemical; design: The His-Tev-MET (956-1390) recombinant DNA in pFastBac (Invitrogen) is transfected into insect cells; His-Tev (histidine tag with TEV cleavage site) (N, cleaved yes); made in house; host or cells: SF21 insect cells (baculovirus, pFastBac); settings: MET 5 nM, 10 μM ATP, poly-(GAT)
Procedure: The His-Tev-MET (956-1390) recombinant DNA in pFastBac (Invitrogen) is transfected into insect cells and, after several viral amplification steps, the final baculovirus stock is tested for the expression of the protein of interest.
After infection for 72 h at 27° C. with the recombinant virus, SF21 cell cultures are harvested by centrifugation and the cell pellets are stored at −80° C.
The cell pellets are resuspended in the lysis buffer (buffer A [50 mM HEPES, pH 7.5, 250 mM NaCl, 10% glycerol, 1 mM TECP]; +cocktail of protease inhibitors, Roche Diagnostics, without EDTA, ref 1873580), stirred at 4° C. until the mixture is homogeneous, and then lysed mechanically using a “Dounce” type apparatus.
After centrifugation, the lysis supernatant is incubated for 2 h at 4° C. with nickel chelate resin (His-Trap 6 Fast Flow™, GE HealthCare). After washing with 20 volumes of buffer A, the suspension is packed into a column, and the proteins are eluted with a gradient of buffer B (buffer A+290 mM imidazole).
The fractions containing the protein of interest, for the purpose of electrophoretic analysis (SDS PAGE), are combined, concentrated by ultrafiltration (10 kDa cut-off) and injected onto an exclusion chromatography column (Superdex™ 200, GE HealthCare) equilibrated in buffer A.
After enzymatic cleavage of the histidine tag, the protein is reinjected onto a new IMAC nickel chelate chromatography column (His-Trap 6 Fast Flow™, GE HealthCare) equilibrated in buffer A. The fractions eluted with a gradient of buffer B and containing the protein of interest after electrophoresis (SDS PAGE) are finally combined and stored at −80° C.
For the production of autophosphorylated protein, the previous fractions are incubated for 1 h at ambient temperature after the addition of 2 mM ATP, 2 mM MgCl2 and 4 mM Na3VO4. After the reaction has been stopped with 5 mM of EDTA, the reaction mixture is injected onto a HiPrep desalifying column (GE HealthCare) pre-equilibrated in buffer A+4 mM Na3VO4, and the fractions containing the protein of interest (SDS PAGE analysis) are combined and stored at −80° C. The degree of phosphorylation is verified by mass spectrometry (LC-MS) and by peptide mapping.
MET at a final concentration of 5 nM is incubated in a final volume of 50 μl of enzymatic reaction in the presence of the test molecule (for a final concentration range of from 0.17 nM to 10 μM, 3% DMSO final concentration) in 10 mM MOPS buffer, pH 7.4, 1 mM DTT, 0.01% Tween 20. The reaction is initiated with the substrate solution to obtain final concentrations of 1 μg/ml poly-(GAT), 10 μM ATP and 5 mM MgCl2. After incubation for 10 min at ambient temperature, the reaction is stopped with a 30 μl mix so as to obtain a final solution of 50 mM Hepes, pH 7.5, 500 mM potassium fluoride, 0.1% BSA and 133 mM EDTA in the presence of 80 ng of streptavidin 61SAXLB Cis-Bio Int. and 18 ng of anti-phosphotyrosine Mab PT66-Europium Cryptate per well. After incubation for 2 hours at ambient temperature, the reading is taken at 2 wavelengths, 620 nm and 665 nm, on a reader for the TRACE/HTRF technique, and the % inhibition is calculated from the 665/620 ratios.
Target sequence in this assay (P08581 956-1390): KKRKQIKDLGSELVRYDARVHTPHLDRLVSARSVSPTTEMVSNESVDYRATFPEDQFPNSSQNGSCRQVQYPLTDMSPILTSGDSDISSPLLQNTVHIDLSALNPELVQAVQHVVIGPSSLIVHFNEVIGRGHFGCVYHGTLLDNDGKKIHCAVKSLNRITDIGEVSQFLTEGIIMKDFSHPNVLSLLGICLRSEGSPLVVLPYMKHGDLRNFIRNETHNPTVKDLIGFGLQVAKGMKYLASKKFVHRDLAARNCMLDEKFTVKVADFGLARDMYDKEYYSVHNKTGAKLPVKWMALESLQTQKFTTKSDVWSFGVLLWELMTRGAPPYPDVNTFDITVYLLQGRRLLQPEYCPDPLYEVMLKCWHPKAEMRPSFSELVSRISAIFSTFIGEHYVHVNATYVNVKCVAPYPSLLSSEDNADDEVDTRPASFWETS

Row | pIC50 [1] | melting point | pIC50 (MET [2]) | pIC50 (MET [3]) | Compound
1 | > 6.00 | > 260 °C | > 7.00 | > 7.00 | O=C(Nc1nc2ccc(Sc3nnc4ccc(-c5cn[nH]c5)cn34)cc2s1)C1CC1 [Example 11, N-(6-{[6-(1H-pyrazol-4-yl)[1,2,4]triazolo[4,3-a]pyridin-3-yl]-sulphanyl}-1,3-benzothiazol-2-yl)cyclopropanecarboxamide]
2 | > 6.00 | 191 °C | > 7.00 | > 7.00 | Cc1ccc(-c2ccc3nnc(Sc4ccc5nc(NC(=O)C6CC6)sc5c4)n3c2)cc1F [Example 12, N-(6-{[6-((3-fluoro-4-methyl)phenyl)[1,2,4]triazolo[4,3-a]pyridin-3-yl]sulphanyl}-1,3-benzothiazol-2-yl)cyclopropanecarboxamide]
3 | > 6.00 | > 260 °C | > 7.00 | > 7.00 | O=C(Nc1nc2ccc(Sc3nnc4ccc(-c5cccc(F)c5)cn34)cc2s1)C1CC1 [Example 13, N-(6-{[6-(3-fluorophenyl)[1,2,4]triazolo[4,3-a]pyridin-3-yl]sulphanyl}-1,3-benzothiazol-2-yl)cyclopropanecarboxamide]
